Data as given in patent US20260325685A1, “Radiopharmaceutical Compositions Targeting Carbonic Anhydrase IX and Uses Thereof” (RayzeBio, Inc., priority 2023, published 2026).
Read-outs that look alike come from different tables or passages of the source.

Legend:
human CA-IX = target: T1, human CA-IX (Homo sapiens, UniProt Q16790); assay: Surface Plasmon Resonance (SPR) binding kinetics to recombinant human CA-IX (Biacore 8K, single-cycle kinetics, 1:1 binding model)
T1 construct: purchased Acro CA9-H82E3
In short: (§1)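 Using captured protein at 1200-1800 RU, we injected compound at 100-0.39 nM in 1% DMSO buffer, pH 7.4, 25° C, then corrected curves for reference and DMSO to obtain rate constants.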

human CA-XII = target: T2, human CA-XII (Homo sapiens, UniProt O43570); assay: Surface Plasmon Resonance (SPR) binding kinetics to recombinant human CA-XII (Biacore 8K, single-cycle kinetics, 1:1 binding model)
T2 construct: purchased Creative BioMart CA12-261H
T2 sequence (O43570 25-354): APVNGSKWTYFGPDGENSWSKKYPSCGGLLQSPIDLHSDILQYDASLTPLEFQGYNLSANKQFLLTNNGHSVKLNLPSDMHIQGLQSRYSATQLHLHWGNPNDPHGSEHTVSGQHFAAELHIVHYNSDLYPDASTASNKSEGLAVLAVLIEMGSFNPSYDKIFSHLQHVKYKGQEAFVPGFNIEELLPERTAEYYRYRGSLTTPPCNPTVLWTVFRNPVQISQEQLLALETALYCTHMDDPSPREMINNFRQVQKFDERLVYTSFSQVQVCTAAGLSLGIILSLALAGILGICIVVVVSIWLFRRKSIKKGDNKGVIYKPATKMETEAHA
In short: as §1

[1] = Chelated Metal: Lu-175; SPR, 25° C., pH 7.4; read-out: CAIX KD
[2] = Chelated Metal: Lu-175, 25° C., pH 7.4, read-out: CAXII KD
[3] = Chelated Metal: Cu (cold); SPR, 25° C., pH 7.4; read-out: CAIX KD
[4] = Chelated Metal: Cu (cold), 25° C., pH 7.4, read-out: CAXII KD
[5] = read-out: CAIX KD; Chelated Metal: Lu-175; SPR, 25° C., pH 7.4
[6] = read-out: CAXII KD, Chelated Metal: Lu-175, 25° C., pH 7.4

SMILES | Kd (human CA-IX; [1]) [nM] | Kd (human CA-XII; [2]) [nM] | further results
NS(=O)(=O)c1nnc(NC(=O)C23CC(c4cn(CCNC(=O)[C@@H]5CN(C(=O)CN6CCN(CC(=O)O)CCN(CC(=O)O)CCN(CC(=O)O)CC6)CCN5C(=O)CNC(=O)C5(C(=O)O)CCN(C(=O)CCCCc6ccc(I)cc6)CC5)nn4)(C2)C3)s1.[Lu+3] [Compound 112.19] | < 1 | > 10 | –
CC(CCC(=O)N[C@@H](CC(=O)N[C@@H](CC(=O)N1CCN(C(=O)CN2CCN(CC(=O)O)CCN(CC(=O)O)CC2)C[C@H]1C(=O)NCCn1cc(C23CC(C(=O)Nc4nnc(S(N)(=O)=O)s4)(C2)C3)nn1)C(=O)O)C(=O)O)(c1ccc(O)cc1)c1ccc(O)cc1.[Cu+2] [Compound 126.4] | – | – | Kd (human CA-IX; [3]): < 1 nM; Kd (human CA-XII; [4]): > 10 nM
CC(CCC(=O)N[C@@H](CC(=O)N[C@@H](CC(=O)N[C@@H](CCCCN1CCN(c2ccc(C(=O)Nc3nnc(S(N)(=O)=O)s3)cc2)CC1)C(=O)NCCOCCOCCNC(=O)CN1CCN(CC(=O)O)CCN(CC(=O)O)CCN(CC(=O)O)CC1)C(=O)O)C(=O)O)(c1ccc(O)cc1)c1ccc(O)cc1.[Lu+3] [Compound 121.1] | 1 to 2.5 | > 10 | –
CC(CCC(=O)N1CCC(C(=O)O)(C(=O)NCC(=O)N[C@@H](CCCCn2cc(CCCC(=O)Nc3nnc(S(N)(=O)=O)s3)nn2)C(=O)NCCOCCOCCNC(=O)CN2CCN(CC(=O)O)CCN(CC(=O)O)CCN(CC(=O)O)CC2)CC1)(c1ccc(O)cc1)c1ccc(O)cc1.[Lu+3] [Compound 102] | – | – | Kd (human CA-IX; [5]): 1 to 2.5 nM; Kd (human CA-XII; [6]): > 10 nM
NS(=O)(=O)c1nnc(NC(=O)C23CC(c4cn(CCNC(=O)[C@@H]5CN(C(=O)CN6CCN(CC(=O)O)CCN(CC(=O)O)CC6)CCN5C(=O)C[C@H](NC(=O)C[C@H](NC(=O)c5ccc(C6CC6)cn5)C(=O)O)C(=O)O)nn4)(C2)C3)s1.[Cu+2] [Compound 126.2] | – | – | Kd (human CA-IX; [3]): < 1 nM; Kd (human CA-XII; [4]): 2.5 to 10 nM
CC(CC(=O)N[C@@H](CC(=O)N[C@@H](CC(=O)N[C@@H](CCCCn1cc(C23CCC(C(=O)Nc4nnc(S(N)(=O)=O)s4)(CC2)C3)nn1)C(=O)NCCOCCOCCNC(=O)CN1CCN(CC(=O)O)CCN(CC(=O)O)CCN(CC(=O)O)CC1)C(=O)O)C(=O)O)(c1ccc(O)cc1)c1ccc(O)cc1.[Lu+3] [Compound 100.17] | < 1 | < 1 | –
CC(CCC(=O)N[C@@H](CC(=O)N[C@@H](CC(=O)N[C@@H](CCCCn1cc(C23CCC(C(=O)Nc4nnc(S(N)(=O)=O)s4)(CC2)C3)nn1)C(=O)NCC1(C(=O)O)CN(C(=O)CN2CCN(CC(=O)O)CCN(CC(=O)O)CCN(CC(=O)O)CC2)C1)C(=O)O)C(=O)O)(c1ccc(O)cc1)c1ccc(O)cc1.[Lu+3] [Compound 100.19] | < 1 | < 1 | –
NS(=O)(=O)c1nnc(NC(=O)C23CCC(c4cn(CCNC(=O)[C@@H]5CN(C(=O)CN6CCN(CC(=O)O)CCN(CC(=O)O)CCN(CC(=O)O)CC6)CCN5C(=O)CC[C@H](NC(=O)C[C@H](NC(=O)c5ccc(S(F)(F)(F)(F)F)cc5)C(=O)O)C(=O)O)nn4)(CC2)CC3)s1.[Lu+3] [Compound 109.58] | < 1 | < 1 | –
CC(CCC(=O)N[C@@H](CC(=O)N[C@@H](CC(=O)N1CCN(C(=O)CN2CCN(CC(=O)O)CCN(CC(=O)O)CCN(CC(=O)O)CC2)C[C@H]1C(=O)NCCn1cc(C23CC(C(=O)Nc4nnc(S(N)(=O)=O)s4)(C2)C3)nn1)C(=O)O)C(N)=O)(c1ccc(O)cc1)c1ccc(O)cc1.[Lu+3] [Compound 107.50] | < 1 | > 10 | –
CC(CCC(=O)N[C@@H](CC(=O)N[C@@H](CC(=O)N1CCN(C(=O)[C@H](CCC(=O)NCCOCCOCCOCCOCCOCCOCCOCCOCCC(=O)N[C@@H](CCCCNC(=O)CCCc2ccc(I)cc2)C(=O)O)NC(=O)CN2CCN(CC(=O)O)CCN(CC(=O)O)CCN(CC(=O)O)CC2)C[C@H]1C(=O)NCCn1cc(C23CC(C(=O)Nc4nnc(S(N)(=O)=O)s4)(C2)C3)nn1)C(=O)O)C(=O)O)(c1ccc(O)cc1)c1ccc(O)cc1.[Lu+3] (racemic) [Compound 125] | – | – | Kd (human CA-IX; [5]): 1 to 2.5 nM; Kd (human CA-XII; [6]): > 10 nM
CC(CCCC(=O)N1CCC(C(=O)O)(C(=O)NCC(=O)N[C@@H](CCCCn2cc(C34CC(C(=O)Nc5nnc(S(N)(=O)=O)s5)(C3)C4)nn2)C(=O)NCCOCCOCCNC(=O)CN2CCN(CC(=O)O)CCN(CC(=O)O)CCN(CC(=O)O)CC2)CC1)(c1ccc(O)cc1)c1ccc(O)cc1.[Lu+3] [Compound 102.6] | < 1 | > 10 | –
CCC(CC)Nc1c(F)c(S(N)(=O)=O)c(F)c(F)c1S(=O)(=O)CCOCc1cn(CCNC(=O)[C@H]2CN(C(=O)CN3CCN(CC(=O)O)CCN(CC(=O)O)CCN(CC(=O)O)CC3)CCN2C(=O)C[C@H](NC(=O)[C@@H]2COCCN2C(=O)CCCc2ccc(O)cc2)C(=O)O)nn1.[Lu+3] [Compound 107.41] | 1 to 2.5 | > 10 | –
CC(C)c1ccc(C(=O)N[C@@H](CC(=O)N[C@@H](CC(=O)N2CCN(C(=O)CN3CCN(CC(=O)O)CCN(CC(=O)O)CCN(CC(=O)O)CC3)C[C@H]2C(=O)NCCn2cc(C34CC(C(=O)Nc5nnc(S(N)(=O)=O)s5)(C3)C4)nn2)C(=O)O)C(=O)O)cc1.[Lu+3] [Compound 109.39] | 1 to 2.5 | 2.5 to 10 | –
CC(CCCC(=O)N1CCC(C(N)=O)(C(=O)NCC(=O)NC2(C(=O)NCCn3cc(C45CC(c6cn7nc(S(N)(=O)=O)sc7n6)(C4)C5)nn3)CCN(C(=O)CN3CCN(CC(=O)O)CCN(CC(=O)O)CCN(CC(=O)O)CC3)CC2)CC1)(c1ccc(O)cc1)c1ccc(O)cc1.[Lu+3] [Compound 117.5] | < 1 | 2.5 to 10 | –
CC(CCC(=O)N[C@H](CC(=O)N[C@H](CC(=O)N1CCN(C(=O)CN2CCN(CC(=O)O)CCN(CC(=O)O)CCN(CC(=O)O)CC2)C[C@H]1C(=O)NCCn1cc(C23CC(C(=O)Nc4nnc(S(N)(=O)=O)s4)(C2)C3)nn1)C(=O)O)C(=O)O)(c1ccc(O)cc1)c1ccc(O)cc1.[Lu+3] [Compound 107.21] | 1 to 2.5 | > 10 | –
CC(CCCC(=O)N1CCC(C(N)=O)(C(=O)NCC(=O)NC2(C(=O)NCCn3cc(C45CC(C(=O)Nc6nnc(S(N)(=O)=O)s6)(C4)C5)nn3)CCN(C(=O)CC[C@H](C(=O)O)N3CCN(CC(=O)O)CCN(CC(=O)O)CCN(CC(=O)O)CC3)CC2)CC1)(c1ccc(O)cc1)c1ccc(O)cc1.[Lu+3] [Compound 127.4] | < 1 | > 10 | –
CC(CCCC(=O)N1CCC(C(=O)O)(C(=O)NCC(=O)NC2(C(=O)NCCn3cc(C45CC(C(=O)Nc6nnc(S(N)(=O)=O)s6)(C4)C5)nn3)CCN(C(=O)CN3CCN(CC(=O)O)CCN(CC(=O)O)CCN(CC(=O)O)CC3)CC2)CC1)(c1ccc(O)cc1)c1ccc(O)cc1.[Lu+3] (single isomer, unassigned) [Compound 117.1] | < 1 | > 10 | –
N[C@@H](CC(=O)N[C@@H](CC(=O)N1CCN(C(=O)CN2CCN(CC(=O)O)CCN(CC(=O)O)CCN(CC(=O)O)CC2)C[C@H]1C(=O)NCCn1cc(C23CC(C(=O)Nc4nnc(S(N)(=O)=O)s4)(C2)C3)nn1)C(=O)O)C(=O)O.[Lu+3] [Compound 109.13] | < 1 | 2.5 to 10 | –
CC(CCCOc1cc(NC(CC(=O)N[C@@H](CCCCn2cc(CCCC(=O)Nc3nnc(S(N)(=O)=O)s3)nn2)C(=O)NCCOCCOCCNC(=O)CN2CCN(CC(=O)O)CCN(CC(=O)O)CCN(CC(=O)O)CC2)C(=O)O)cc(C(=O)O)c1)(c1ccc(O)cc1)c1ccc(O)cc1.[Lu+3] (some centres unmarked) [Compound 102.7] | < 1 | 2.5 to 10 | –
CN1CCN(C(=O)CCCC(C)(c2ccc(O)cc2)c2ccc(O)cc2)[C@H](C(=O)N[C@@H](CC(=O)N2CCN(C(=O)CN3CCN(CC(=O)O)CCN(CC(=O)O)CCN(CC(=O)O)CC3)C[C@@H]2C(=O)NCCn2cc(C34CC(C(=O)Nc5nnc(S(N)(=O)=O)s5)(C3)C4)nn2)C(=O)O)C1.[Lu+3] [Compound 107.25] | < 1 | > 10 | –
CCCCNc1c(F)c(S(N)(=O)=O)c(F)c(F)c1S(=O)(=O)CCOCc1cn(CCNC(=O)[C@H]2CN(C(=O)CN3CCN(CC(=O)O)CCN(CC(=O)O)CCN(CC(=O)O)CC3)CCN2C(=O)C[C@H](NC(=O)[C@@H]2COCCN2C(=O)CCCc2ccc(O)cc2)C(=O)O)nn1.[Lu+3] [Compound 107.54] | 2.5 to 10 | > 10 | –
NS(=O)(=O)c1nnc(NC(=O)C23CC(c4cn(C[C@H]5CN(C(=O)CN6CCN(CC(=O)O)CCN(CC(=O)O)CCN(CC(=O)O)CC6)CCN5C(=O)[C@@H]5COCCN5C(=O)Cc5n[nH]c6ccccc56)nn4)(C2)C3)s1.[Lu+3] [Compound 114.2] | 1 to 2.5 | > 10 | –
CC(CCC(=O)N[C@@H](CC(=O)N[C@@H](CC(=O)N1CCN(C(=O)CN2CCN(CC(=O)O)CCN(CC(=O)O)CCN(CC(=O)O)CC2)CC1C(=O)NCCn1cc(C23CCC(C(=O)Nc4nnc(S(N)(=O)=O)s4)(CC2)C3)nn1)C(=O)O)C(=O)O)(c1ccc(O)cc1)c1ccc(O)cc1.[Lu+3] (some centres unmarked) [Compound 107.1] | < 1 | < 1 | –
NS(=O)(=O)c1nnc(NC(=O)C23CCC(c4cn(CCNC(=O)[C@@H]5CN(C(=O)CN6CCN(CC(=O)O)CCN(CC(=O)O)CCN(CC(=O)O)CC6)CCN5C(=O)CC[C@H](NC(=O)C[C@H](NC(=O)c5cc(C(F)(F)F)[nH]n5)C(=O)O)C(=O)O)nn4)(CC2)CC3)s1.[Lu+3] [Compound 109.47] | < 1 | < 1 | –
CC(CCCC(=O)N1CCC(C(N)=O)(C(=O)NCC(=O)NC2(C(=O)NCCn3cc(C45CC(C(=O)Nc6nnc(S(N)(=O)=O)s6)(C4)C5)nn3)CCN(C(=O)CN3C[C@@H]4CN(C(=O)CN5CCN(CC(=O)O)CCN(CC(=O)O)CCN(CC(=O)O)CC5)C[C@@H]4C3)CC2)CC1)(c1ccc(O)cc1)c1ccc(O)cc1.[Lu+3] (racemic) [Compound 129.6] | < 1 | > 10 | –
